Measured values published in paper PMC11089505, “Structural Elucidation and Antiviral Activity of Covalent Cathepsin L Inhibitors” (Journal of Medicinal Chemistry, 2024).
pEC50, pIC50, pKi: −log10 of the molar value. Values joined by “and” are separate entries in the source; they are usually repeats but may differ in a detail not shown here. Equal entries are not always repeated. Where two headings read alike, the source gives them in different places.

Tests used:
[1] = system: Vero cells; set-up: method as in PMID 32541865; details: another assay using Vero cells; cited from earlier work
[2] = molecular target: T1, CatL (Homo sapiens, UniProt P07711, T223A); assay: NanoDSF, thermal stability of CatL; assay type: binding
T1 construct: made in house; host or cells: Komagataella pastoris strain GS115
T1 sequence (P07711 114-333 T223A): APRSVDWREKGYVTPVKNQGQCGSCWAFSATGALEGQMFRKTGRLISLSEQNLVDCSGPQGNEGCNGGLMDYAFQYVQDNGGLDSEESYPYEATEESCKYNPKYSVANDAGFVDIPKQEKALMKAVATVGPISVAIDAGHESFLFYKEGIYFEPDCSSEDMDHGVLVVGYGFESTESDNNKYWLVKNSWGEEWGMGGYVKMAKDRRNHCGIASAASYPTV

[3] = Cell viability assay (CellTiter-Blue); details: chlorocebus sabaeus
[4] = system: SARS-CoV-2 wild-type SA-WA1/2020; set-up: method as in PMID 32541865; details: Vero cells, read-out: half-maximal effective concentration; cited from earlier work
[5] = molecular target: T2, bovine serum albumin (Bos taurus, UniProt P02769); assay type: binding
T2 construct: purchased Merck, Germany
T2 sequence (P02769 25-607): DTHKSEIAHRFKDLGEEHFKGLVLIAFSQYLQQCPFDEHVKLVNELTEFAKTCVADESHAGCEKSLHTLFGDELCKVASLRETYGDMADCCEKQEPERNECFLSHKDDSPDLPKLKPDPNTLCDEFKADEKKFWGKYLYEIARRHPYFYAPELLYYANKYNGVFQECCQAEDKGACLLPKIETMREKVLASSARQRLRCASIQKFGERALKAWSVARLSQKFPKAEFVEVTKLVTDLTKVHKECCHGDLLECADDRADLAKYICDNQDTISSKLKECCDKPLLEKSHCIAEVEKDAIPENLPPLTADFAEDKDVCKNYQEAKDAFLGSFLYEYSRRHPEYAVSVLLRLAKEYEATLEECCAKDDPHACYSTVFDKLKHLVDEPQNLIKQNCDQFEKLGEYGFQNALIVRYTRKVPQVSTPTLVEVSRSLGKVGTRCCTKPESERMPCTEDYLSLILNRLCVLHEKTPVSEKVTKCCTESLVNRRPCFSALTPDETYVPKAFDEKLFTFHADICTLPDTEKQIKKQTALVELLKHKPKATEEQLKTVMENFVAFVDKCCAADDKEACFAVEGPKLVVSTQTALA

[6] = in DMSO; compound supply and quality parameters, supplier named in Table S4; cited from earlier work
[7] = system: SARS-CoV-2-GFP in Vero E6 cells; assay: microbe, parasite or virus in culture; assay type: cell-based
[8] = system: CatL; details: Table S1, SI reference list; cited from earlier work
[9] = molecular target: T1, CatL; assay: CatL inhibition assay (Ki), substrate Z-RR-AMC; assay type: biochemical
Outline: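 Buffer: 50 mM sodium acetate pH 4.0, 50 mM NaCl, 0.1% PEG 6000, 5 mM DTT; epoxide inhibitors separately in 50 mM sodium phosphate pH 6.0 with same additives.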

[10] = molecular target: SARS-CoV-2 Mpro (Severe acute respiratory syndrome coronavirus 2, UniProt P0DTD1); assay type: binding

CCCC(NC(=O)C(CC(C)C)NC(=O)OCc1ccccc1)C(=O)C(=O)NCc1ccccn1 (stereo not shown) [CI-XII, Benzyl N-[1-[[1.2-dioxo-1-(pyridin-2-ylmethylamino)hexan-3-yl]amino]-4-methyl-1-oxopentan-2-yl]carbamate]
CC50 [1]: > 50000 nM
2:1, Tm average (CatL) [2]: 81.6 °C
20:1, Tm average (CatL) [2]: 81.3 °C
ΔTm [K] for CatL, 2:1 ratio [2]: 18.5 ± 0.4 K
ΔTm (for CatL), 2:1 compound to protein mixing ratio ([2]; pH 5): 18,5 ± 0,4 °C and 18.5 °C
ΔTm (for CatL), 20:1 compound to protein mixing ratio ([2]; pH 5): 18,2 ± 0,2 °C and 18.2 °C
CC50 at 48 h [3]: > 10000 nM
pEC50 [4]: > 6.00
Tm of bovine serum albumin in the presence of compound [5]: 333.4 ± 0.8 K
Solvent (max. solubility) [6]: 16 mg/mL
pEC50 ([7]; Severe acute respiratory syndrome coronavirus 2, Vero C1008, 24 h, read-out: EC50 (24 h)): 8.19
pEC50 ([7]; Severe acute respiratory syndrome coronavirus 2, Vero C1008, 24 h, read-out: EC50 (after 24 h)): 8.20
pEC50 ([7]; Severe acute respiratory syndrome coronavirus 2, Vero C1008, 48 h, read-out: EC50 (after 48 h)): 6.84
pEC50 ([7]; read-out: EC50 (24 h)): > 8.00
pIC50 [8]: 8.80
Residual activity (Vi/V0) ([9]; CI-XII 0.055 uM): 0.9785 and 0.9376
Residual activity (Vi/V0) ([9]; CI-XII 0.091 uM): 0.9548 and 0.9431
Residual activity (Vi/V0) ([9]; CI-XII 0.152 uM): 0.9354 and 0.8807
Residual activity (Vi/V0) ([9]; CI-XII 0.254 uM): 0.873 and 0.9321
Residual activity (Vi/V0) ([9]; CI-XII 0.423 uM): 0.8656 and 0.8369
Residual activity (Vi/V0) ([9]; CI-XII 0.705 uM): 0.7709 and 0.7656
Residual activity (Vi/V0) ([9]; CI-XII 1.176 uM): 0.6641 and 0.6442
Residual activity (Vi/V0) ([9]; CI-XII 1.960 uM): 0.5112 and 0.4696
Residual activity (Vi/V0) ([9]; CI-XII 3.266 uM): 0.3345 and 0.322
Residual activity (Vi/V0) ([9]; CI-XII 5.443 uM): 0.1956 and 0.1842
Residual activity (Vi/V0) ([9]; CI-XII 9.072 uM): 0.1094 and 0.09936
Residual activity (Vi/V0) ([9]; CI-XII 15.120 uM): 0.06322 and 0.05321
Residual activity (Vi/V0) ([9]; CI-XII 25.200 uM): 0.03696 and 0.03366
Residual activity (Vi/V0) ([9]; CI-XII 42.000 uM): 0.01939 and 0.02113
Residual activity (Vi/V0) ([9]; CI-XII 70.000 uM): 0.01108 and 0.01542
fold lower Ki than 13b ([9]; CatL Ki relative to 13b): ~500 fold
pKi ([9]; Ki, CatL, Z-RR-AMC, pH 4.0, 37 °C): 9.19
remaining activity at 0.055 µM ([9]; read-out: Residual activity (Vi/V0), CI-XII 0.055 uM): 101%
remaining activity at 0.091 µM ([9]; read-out: Residual activity (Vi/V0), CI-XII 0.091 uM): 100%
remaining activity at 0.152 µM ([9]; read-out: Residual activity (Vi/V0), CI-XII 0.152 uM): 102%
remaining activity at 0.254 µM ([9]; read-out: Residual activity (Vi/V0), CI-XII 0.254 uM): 94.7%
remaining activity at 0.423 µM ([9]; read-out: Residual activity (Vi/V0), CI-XII 0.423 uM): 84.5%
remaining activity at 0.705 µM ([9]; read-out: Residual activity (Vi/V0), CI-XII 0.705 uM): 75%
remaining activity at 1.176 µM ([9]; read-out: Residual activity (Vi/V0), CI-XII 1.176 uM): 65.7%
remaining activity at 1.96 µM ([9]; read-out: Residual activity (Vi/V0), CI-XII 1.960 uM): 52.2%
remaining activity at 3.266 µM ([9]; read-out: Residual activity (Vi/V0), CI-XII 3.266 uM): 34.9%
remaining activity at 5.443 µM ([9]; read-out: Residual activity (Vi/V0), CI-XII 5.443 uM): 17.4%
remaining activity at 9.072 µM ([9]; read-out: Residual activity (Vi/V0), CI-XII 9.072 uM): 9.65%
remaining activity at 15.12 µM ([9]; read-out: Residual activity (Vi/V0), CI-XII 15.120 uM): 5.77%
remaining activity at 25.2 µM ([9]; read-out: Residual activity (Vi/V0), CI-XII 25.200 uM): 3.2%
remaining activity at 42 µM ([9]; read-out: Residual activity (Vi/V0), CI-XII 42.000 uM): 1.92%
remaining activity at 70 µM ([9]; read-out: Residual activity (Vi/V0), CI-XII 70.000 uM): 1.07%
2:1, Tm average (Mpro) ([10]; 2:1 compound to protein): 66.7 °C
ΔTm (for Mpro), 2:1 compound to protein mixing ratio ([10]; pH 7.5): 11,7 ± 1,7 °C and 11.7 °C
